Columns and labels:
Zebrafish VDRα = molecular target: T1, Zebrafish VDRα (Danio rerio, UniProt Q9PTN2); assay: Transient transactivation assay (XREM-Luc, HepG2); type: cell-based; settings: 100 μM LCA
T1 construct: 89.7 ng/well of full-length pSG5-VDR was co-transfected; expressed in transfected cells; host or cells: HepG2
T1 sequence (Q9PTN2 1-453): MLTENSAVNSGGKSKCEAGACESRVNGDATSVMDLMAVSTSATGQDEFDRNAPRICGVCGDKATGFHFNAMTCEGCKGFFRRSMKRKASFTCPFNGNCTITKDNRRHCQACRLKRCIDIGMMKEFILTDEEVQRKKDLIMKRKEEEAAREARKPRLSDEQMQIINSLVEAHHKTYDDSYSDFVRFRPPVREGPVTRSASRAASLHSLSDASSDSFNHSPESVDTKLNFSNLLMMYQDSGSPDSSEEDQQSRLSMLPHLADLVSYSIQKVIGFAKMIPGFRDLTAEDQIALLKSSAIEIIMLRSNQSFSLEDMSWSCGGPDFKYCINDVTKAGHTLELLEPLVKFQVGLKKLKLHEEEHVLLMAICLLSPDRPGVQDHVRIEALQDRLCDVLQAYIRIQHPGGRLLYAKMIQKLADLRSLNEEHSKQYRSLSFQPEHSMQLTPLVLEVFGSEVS
Procedure: (§1) HepG2 cells (American Type Culture Collection #HB-8065) were cultured in T75 flasks with vented caps (Corning Life Sciences, Corning, NY) using Minimum Essential Medium (MEM) with phenol red supplemented with 10% fetal bovine serum, 1 mM sodium pyruvate, and 1X MEM non-essential amino acids. Cells were maintained following standard protocols in a 5% CO2 incubator set at 37°C, and split when 80–90% confluent.
(§2) For the transient transactivation assays, HepG2 cells were seeded in 96-well tissue culture plates at a density of 2.5x10^4 cells per well in complete phenol red-free MEM, and allowed to recover overnight. Transfections were performed the following day using Lipofectamine 2000 (Life Technologies, Grand Island, NY) as described previously. For functional comparisons, 89.7 ng/well of full-length pSG5-VDR was co-transfected with 19.2 ng/well human XREM-Luc reporter and 4.5 ng/well of pRL-CMV as an internal luciferase control. Coregulator studies included the addition of 18.3 ng/well of human coregulators (pCDNA-RXRWT, pCDNA-RXRAF2, pSG5-SRC1, pSG5-GRIP1 or pSG5-ACTR) where indicated. […] Controls include 120 nM 1,25D3 as a positive control, and ethanol as a vehicle control. Twenty-four hours post-exposure cells were tested for luciferase activity using the Dual-Glo Luciferase Assay System (Promega Corporation, Madison, WI) according to the manufacturer’s protocols. Luciferase data were first normalized to the pRL-CMV internal luciferase control. LCA-mediated VDR transactivation (fold activation) was calculated as the ratio of the VDR luciferase response relative to the empty vector control. To calculate the impact of coregulators on VDR transactivation, VDR response in the presence of coregulators was normalized to VDR alone. All experiments were repeated 3 times and conducted as groups of 4 replicate wells. VDR response in the absence of coregulators was analyzed using a 1-way ANOVA followed by Dunnett’s multiple comparisons test. To examine the effects of different coregulators on VDR activation, data were analyzed using a 2-way ANOVA followed by Bonferroni’s multiple comparisons test in GraphPad Prism (GraphPad Inc, San Diego, CA).

Medaka VDRα = Medaka VDRα (Oryzias latipes, UniProt B2CCA0); assay: Transient transactivation assay (XREM-Luc, HepG2); type: cell-based; settings: 100 μM LCA
Sequence of Medaka VDRα (B2CCA0 entry or part of it, one chain of several): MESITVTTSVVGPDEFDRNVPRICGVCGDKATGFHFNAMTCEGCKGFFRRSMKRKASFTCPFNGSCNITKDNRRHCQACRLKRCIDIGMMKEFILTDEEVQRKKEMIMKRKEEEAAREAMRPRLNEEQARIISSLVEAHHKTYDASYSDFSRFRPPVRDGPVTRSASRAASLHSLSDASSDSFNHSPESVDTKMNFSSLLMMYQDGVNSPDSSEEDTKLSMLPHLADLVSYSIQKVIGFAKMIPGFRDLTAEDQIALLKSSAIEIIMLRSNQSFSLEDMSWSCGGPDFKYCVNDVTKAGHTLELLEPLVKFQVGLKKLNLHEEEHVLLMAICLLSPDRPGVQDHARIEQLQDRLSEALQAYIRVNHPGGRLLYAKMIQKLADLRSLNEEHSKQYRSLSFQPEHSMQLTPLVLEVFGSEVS
Procedure: as §1, §2

Medaka VDRβ = molecular target: T2, Medaka VDRβ (Oryzias latipes, UniProt B2CCA1); assay: Transient transactivation assay (XREM-Luc, HepG2); type: cell-based; settings: 100 μM LCA
T2 sequence (B2CCA1 1-425): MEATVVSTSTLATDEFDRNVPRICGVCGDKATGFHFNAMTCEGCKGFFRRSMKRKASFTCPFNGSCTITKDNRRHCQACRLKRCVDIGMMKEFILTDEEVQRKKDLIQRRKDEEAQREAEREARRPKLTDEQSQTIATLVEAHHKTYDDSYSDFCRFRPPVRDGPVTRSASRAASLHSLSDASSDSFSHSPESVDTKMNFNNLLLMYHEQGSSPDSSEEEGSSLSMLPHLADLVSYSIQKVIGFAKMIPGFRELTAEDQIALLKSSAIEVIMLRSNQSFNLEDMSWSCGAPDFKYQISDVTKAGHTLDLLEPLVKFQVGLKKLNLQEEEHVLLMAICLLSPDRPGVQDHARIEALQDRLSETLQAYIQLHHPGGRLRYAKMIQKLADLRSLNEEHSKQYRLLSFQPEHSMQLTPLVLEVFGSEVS
T2 sequence (P19793 1-462 partner): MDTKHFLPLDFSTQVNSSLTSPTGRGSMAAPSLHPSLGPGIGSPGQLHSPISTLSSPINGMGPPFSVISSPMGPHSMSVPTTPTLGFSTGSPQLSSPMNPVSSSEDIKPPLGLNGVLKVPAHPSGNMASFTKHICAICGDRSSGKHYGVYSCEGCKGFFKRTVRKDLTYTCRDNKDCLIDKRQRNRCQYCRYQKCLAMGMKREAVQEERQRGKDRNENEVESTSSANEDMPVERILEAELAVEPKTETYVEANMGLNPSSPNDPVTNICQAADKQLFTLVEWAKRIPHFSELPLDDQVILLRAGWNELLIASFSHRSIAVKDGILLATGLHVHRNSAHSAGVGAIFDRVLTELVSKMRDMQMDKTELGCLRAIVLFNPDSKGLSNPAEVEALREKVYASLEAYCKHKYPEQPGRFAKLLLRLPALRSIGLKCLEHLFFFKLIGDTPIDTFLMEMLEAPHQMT
Procedure: as §1, §2

[1] = molecular target: all VDR orthologs/paralogs tested; assay: Competitive ligand binding assays, all receptors together; settings: range over all eight VDR orthologs/paralogs
Procedure: Recombinant VDR and human RXRWT lysates were prepared from transfected COS7 cells (American Type Culture Collection #CRL-1651) as described in detail previously [32, 33]. Lysates were diluted 10-fold in ice-cold assay buffer (10 mM Tris HCl, 150 mM KCl, 1 mM EDTA, 0.3 mM ZnCl2, 5 mM DTT, and 1x protease inhibitor cocktail (100 μM AEBSF, 80 nM aprotinin, 5 μM bestatin, 1.5 μM E-64 (for cysteine proteases), 2 μM leupeptin, 1 μM pepstatin A), pH 7.5). […] Reactions were shaken to mix and incubated for 18 hours at 4°C. Bound and free ligand were separated with the addition of 80 μL of ice-cold separation buffer (2.5% (w/v) activated charcoal, 0.5% (w/v) dextran, 100 mM Na2HPO4, 39 mM NaH2PO4, 150 mM NaCl, 15 mM NaN3, 10% gelatin, pH 7.0), and incubated at 4°C for 15 minutes with shaking every 5 minutes. Reactions were centrifuged at 5,000 x g for 5 minutes at 4°C, and 200 μL of the supernatant containing the VDR-bound ligands was removed for scintillation counting.
Total binding was determined using lysate from cells transfected with VDR, and nonspecific binding was determined using lysate from cells transfected with the empty pSG5 vector. Specific binding was determined by subtracting non-specific binding counts from the total binding counts.

Zebrafish VDRβ = molecular target: T3, Zebrafish VDRβ (Danio rerio, UniProt Q1L673); assay: Transient transactivation assay (XREM-Luc, HepG2); type: cell-based; parameters: expressed in transfected cells; host or cells: HepG2; settings: 100 μM LCA; co-transfected human RXRWT; vs VDR alone
T3 sequence (Q1L673 1-422): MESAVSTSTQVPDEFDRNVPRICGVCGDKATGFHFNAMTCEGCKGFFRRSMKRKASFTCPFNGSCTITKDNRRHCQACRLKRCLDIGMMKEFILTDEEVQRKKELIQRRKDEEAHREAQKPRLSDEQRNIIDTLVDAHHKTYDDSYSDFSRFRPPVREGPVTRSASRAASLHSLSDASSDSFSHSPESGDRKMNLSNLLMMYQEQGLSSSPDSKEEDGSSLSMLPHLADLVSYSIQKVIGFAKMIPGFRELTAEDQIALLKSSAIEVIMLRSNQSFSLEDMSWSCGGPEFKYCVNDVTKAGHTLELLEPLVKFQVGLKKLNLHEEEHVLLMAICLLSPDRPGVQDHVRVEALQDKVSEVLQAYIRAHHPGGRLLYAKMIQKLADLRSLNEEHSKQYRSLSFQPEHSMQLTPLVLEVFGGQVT
Procedure: as §1
For the transient transactivation assays, HepG2 cells were seeded in 96-well tissue culture plates at a density of 2.5x10^4 cells per well in complete phenol red-free MEM, and allowed to recover overnight. Transfections were performed the following day using Lipofectamine 2000 (Life Technologies, Grand Island, NY) as described previously. […] LCA-mediated VDR transactivation (fold activation) was calculated as the ratio of the VDR luciferase response relative to the empty vector control. […] VDR response in the absence of coregulators was analyzed using a 1-way ANOVA followed by Dunnett’s multiple comparisons test. To examine the effects of different coregulators on VDR activation, data were analyzed using a 2-way ANOVA followed by Bonferroni’s multiple comparisons test in GraphPad Prism (GraphPad Inc, San Diego, CA).

[2] = co-transfected human RXRWT, vs VDR alone
[3] = compared to either coregulator individually

C[C@H](CCC(=O)O)[C@H]1CC[C@H]2[C@@H]3CC[C@@H]4C[C@H](O)CC[C@]4(C)[C@H]3CC[C@]12C [LCA, 5β-cholanic acid-3α-ol]
Effect of exogenous human RXRWT on VDR transactivation (Zebrafish VDRα; [2]): significantly enhanced transactivation
Effect of RXRWT+SRC1 or RXRWT+GRIP1 on VDR transactivation (Zebrafish VDRα; [3]): significantly enhanced VDR transactivation
Effect of exogenous human RXRWT on VDR transactivation (Medaka VDRα; [2]): significantly enhanced transactivation
Effect of RXRWT+SRC1 or RXRWT+GRIP1 on VDR transactivation (Medaka VDRα; [3]): significantly enhanced VDR transactivation
Effect of exogenous human RXRWT on VDR transactivation (Medaka VDRβ; [2]): significantly enhanced transactivation
Effect of RXRWT+SRC1 or RXRWT+GRIP1 on VDR transactivation (Medaka VDRβ; [3]): significantly enhanced VDR transactivation
Ki [1]: 4.2 to 9.5 µM
Effect of exogenous human RXRWT on VDR transactivation (Zebrafish VDRβ): significantly enhanced transactivation
